Assay results as given in ChEMBL document CHEMBL6127084, “Exploration of the tunability of BRD4 degradation by DCAF16 trans-labelling covalent glues” (Eur J Med Chem, 2024).
Active and inactive are the calls of the source. The calls are words filed in the database; no cut-off is given here.

Legend:
[1] = biological target: T1, DDB1- and CUL4-associated factor 16/Bromodomain-containing protein 4 (Homo sapiens, UniProt O60885+Q9NXF7); assay: Molecular glue degradation (MGD) activity at DCAF16/BRD4 in human K562 cells incubated for 16 hrs; type: cell-based
[2] = biological target: T1, DDB1- and CUL4-associated factor 16/Bromodomain-containing protein 4; assay: Binding affinity to His-tagged BRD4 BD2 (unknown origin) assessed as ternary complex formation at 0.001 to 100 uM incubated for 1 to 24 hrs by TR-FRET assay; type: protein assay; settings: dose 0.001-100 µM, time 1-24 hrs
[3] = biological target: T1, DDB1- and CUL4-associated factor 16/Bromodomain-containing protein 4; assay: Molecular glue degradation (MGD) activity at DCAF16/BRD4 in human K562 cells assessed as maximum degradation incubated for 16 hrs by fluorescent stability reporter assay relative to control; type: cell-based
[4] = Stability of compound in PBS assessed as half lives incubated for 1 hrs by LC-MS/MS analysis; type: physicochemical
K562 = assay: Induction of eGF-tagged BRD4 BD2 degradation in DCAF16 knock out human K562 cells at 1 uM incubated for 16 hrs by Western blot analysis; type: cell-based
[5] = Glutathione reactivity in PBS buffer assessed as half lives incubated for 1 hrs by LC-MS/MS analysis; type: physicochemical
Jurkat = assay: Molecular glue degradation (MGD) activity at BRD4 in DCAF16 knock out human Jurkat cells assessed as BRD4 degradation at 0.01 to 10 uM incubated for 6 hrs by Nano-Glo HiBiT assay; type: cell-based; settings: dose 0.01-10 µM
[6] = biological target: T1, DDB1- and CUL4-associated factor 16/Bromodomain-containing protein 4; assay: Molecular glue degradation (MGD) activity at DCAF16/BRD4 BD2 in human K562 cells assessed as maximum degradation at 10 uM incubated for 16 hrs by fluorescent stability reporter assay relative to control; type: cell-based
[7] = biological target: T1, DDB1- and CUL4-associated factor 16/Bromodomain-containing protein 4; assay: Molecular glue degradation (MGD) activity at DCAF16/BRD4 in wild type human Jurkat cells assessed as BRD4 degradation at < 100 nM incubated for 6 hrs by Nano-Glo HiBiT assay; type: cell-based
[8] = biological target: T1, DDB1- and CUL4-associated factor 16/Bromodomain-containing protein 4; assay: Molecular glue degradation (MGD) activity at DCAF16/BRD4 in wild type human Jurkat cells assessed as BRD4 degradation at 10 nM incubated for 6 hrs by Nano-Glo HiBiT assay; type: cell-based
[9] = biological target: T1, DDB1- and CUL4-associated factor 16/Bromodomain-containing protein 4; assay: Binding affinity to DCAF16/eGF-tagged BRD4 BD2 (unknown origin) assessed as ternary complex formation by measuring maximum TR-FRET ratio at 100 uM incubated for 24 hrs by TR-FRET assay; type: protein assay
[10] = biological target: T1, DDB1- and CUL4-associated factor 16/Bromodomain-containing protein 4; assay: Binding affinity to DCAF16/eGF-tagged BRD4 BD2 (unknown origin) assessed as ternary complex formation by measuring maximum TR-FRET ratio at 100 uM incubated for 1 hrs by TR-FRET assay; type: protein assay
[11] = biological target: T1, DDB1- and CUL4-associated factor 16/Bromodomain-containing protein 4; assay: Potency index, ratio of GNE011 MIC to test compound MIC for molecular glue degradation (MGD) activity at DCAF16/BRD4 BD2 in human K562 cells assessed as maximum degradation at 10 uM incubated for 16 hrs by fluorescent stability reporter assay; type: cell-based
[12] = biological target: T1, DDB1- and CUL4-associated factor 16/Bromodomain-containing protein 4; assay: Molecular glue degradation (MGD) activity at DCAF16/ BRD4 BD2 in human K562 cells transfected with […] incubated for 16 hrs by fluorescent stability reporter assay; type: cell-based; settings: dose 0.001-10 µM
[13] = biological target: T1, DDB1- and CUL4-associated factor 16/Bromodomain-containing protein 4; assay: Molecular glue degradation (MGD) activity at DCAF16/BRD4 in human K562 cells assessed as covalent-engagement of DCAF16 by measuring BRD4 degradation at 1 uM preincubated for 4 hrs followed by compound addition measured after 24 hrs (no washout experiment) by Western blot analysis; type: cell-based; settings: time 28.0 hrs

T1 sequence (Q9NXF7 whole entry, looked up, other chains not shown): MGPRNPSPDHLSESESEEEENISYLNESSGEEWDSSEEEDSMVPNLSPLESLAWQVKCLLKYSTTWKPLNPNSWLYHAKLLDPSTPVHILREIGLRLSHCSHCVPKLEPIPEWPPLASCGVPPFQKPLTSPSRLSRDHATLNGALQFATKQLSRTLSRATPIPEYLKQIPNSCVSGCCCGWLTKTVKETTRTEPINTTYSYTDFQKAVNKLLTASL

Structure (SMILES) | DC50 [1] | Activity [2] | Emax [3] | half-life [4] | Activity (K562) | half-life [5] | Activity (Jurkat) | Emax [6] | Activity [7] | Activity [8] | Ratio [9] | Ratio [10] | fold change (FC) [11] | Activity [12] | Activity [13]
Cc1sc2c(c1C)C(c1ccc(C#CCO)cc1)=N[C@@H](CC(=O)OC(C)(C)C)c1nncn1-2 | > 10000 nM | inactive | 10% |  |  |  |  |  |  |  |  |  |  |  | 
Cc1sc2c(c1C)C(c1ccc(C#CC(N)=O)cc1)=N[C@@H](CC(=O)OC(C)(C)C)c1nncn1-2 | 51 nM |  | 69% | > 12.5 h | inactive | 6.33 h | inactive |  |  |  |  |  |  |  | 
Cc1sc2c(c1C)C(c1ccc(NC(=O)CCl)cc1)=N[C@@H](CC(=O)OC(C)(C)C)c1nncn1-2 | 8 nM |  |  | > 12.5 h |  | 8.85 h | inactive | 56% | > 90% |  |  |  |  |  | 
Cc1sc2c(c1C)C(c1ccc(C#CC=O)cc1)=N[C@@H](CC(=O)OC(C)(C)C)c1nncn1-2 | 703 nM |  | 69% | > 12.5 h | inactive | 8.83 h | inactive |  | > 90% | 73% | 0.28 | 2.12 |  |  | 
C=CS(=O)(=O)Nc1ccc(C2=N[C@@H](CC(=O)OC(C)(C)C)c3nncn3-c3sc(C)c(C)c32)cc1 | 1 nM |  |  | > 12.5 h | inactive | > 12.5 h | inactive | 95% |  |  |  |  | 1000 |  | 
Cc1sc2c(c1C)C(c1ccc(/C=C/C=O)cc1)=N[C@@H](CC(=O)OC(C)(C)C)c1nncn1-2 | 64 nM |  | 75% | > 12.5 h | inactive | 6.92 h | inactive |  | > 90% |  |  |  |  |  | 
Cc1sc2c(c1C)C(c1ccc(/C=C/C(N)=O)cc1)=N[C@@H](CC(=O)OC(C)(C)C)c1nncn1-2 |  | inactive |  | > 12.5 h |  | > 12.5 h |  |  |  |  |  |  |  | inactive | Active
